Laboratory results from publication PMC12040169 (PLOS Biology, 2025).

assay: in vitro; conditions: human, hela cells, % viability

Compound	viability at 28.5 h, 10 µM [%]
O=c1[nH]c(=O)n(C2CC(O)C(CO)O2)cc1F (stereo not shown) [CBK011695]	49.6
CCOC(=O)[C@H]1CN(C(=O)C(C)(C)NC(=O)OC(C)(C)C)C[C@@H]1c1cc2cc(C)ccc2o1 [CBK001599]	91.1
O=S(=O)(c1ccc(C(F)(F)F)cc1Cl)N1CCCN(Cc2ccc(F)cc2F)CC1 [CBK062946]	91.8
Nc1ncc(-c2ccco2)nc1-c1ccc(F)c(Cl)c1 [CBK064013]	106
CCCC(=O)Nc1ccc(N2CCNCC2)c2ccccc12 [CBK024619T]	88.4
Cc1nonc1CNC(=O)C1CC2C=CC1C21CC1 (stereo not shown) [CBK281678]	91.4
COc1ccc(-c2nc3cc(NC(=O)c4ccccc4Br)ccc3o2)cc1 [CBK264953]	95.5
Nc1nnc(SCCC(=O)N2CCN(c3ccc(F)cc3)CC2)s1 [CBK304597]	84.7
CN1CCC(N2CCC[C@H]2c2nc(-c3ccnc(N4CCOCC4)c3)no2)CC1 [CBK288880]	94.4
CN1CCN(C(=O)c2c(NS(=O)(=O)c3cc(F)c(Br)cc3F)sc3c2CCCC3)CC1 [CBK050419]	90.5
CCNC(=O)Nc1ccc2c(-c3ccc4c(c3)CCO4)ccnc2n1 [CBK070673]	96.2
CSc1ccc(-n2cc(-c3ccc(F)cc3F)nn2)cc1 [CBK112979]	99.3
CCOc1cc(Br)ccc1S(=O)(=O)NCc1ccc2c(c1)OCO2 [CBK268813]	108
O=c1ccc2c(-c3cccc(C(F)(F)F)c3)ccnc2[nH]1 [CBK073733]	90.5
COCCn1c(SCc2cn3c(C)cccc3n2)nc(C)c1C [CBK304050]	83.9
O=C(NCc1ccccn1)c1ccc(-n2ccnc2)c(-n2cccc2)c1 [CBK285347]	80.8
CCOC(=O)c1c(NC(=O)c2cc(-c3ccc(Cl)s3)nc3ccccc23)sc(C)c1CC [CBK262657]	107
COCCNC(=O)c1ccc(-c2cc(C(C)C)ccc2OC)nc1NCC1CC1 [CBK106256]	94.1
CC(=O)N[C@H](C(=O)N1CC[C@@H]2NC(=O)[C@@H](Cc3ccccc3)NC(=O)C3(C/C=C/C[C@@H]2C1)CCOCC3)[C@@H](C)O [CBK292186]	96.9
O=C(CN(c1ccccc1)S(=O)(=O)c1ccccc1[N+](=O)[O-])Nc1ccccc1 [CBK263777]	76.3
N#C/C(=C\Nc1ccc(S(N)(=O)=O)cc1)c1nc(-c2cccc([N+](=O)[O-])c2)cs1 [CBK262366]	115
C[C@H](c1ccccc1)n1c(=O)[nH]c2ncc(-c3ccc(C(N)=O)cc3)nc21 [CBK064377]	111

Compound	viability at 28.5 h, 10 µM [%]
CCC1Oc2ccc(C(O)c3ccco3)cc2N(Cc2cccc(OC)c2)C1=O (stereo not shown) [CBK286190]	89.7
COc1ccc2c(c1)CC(=O)NC21CCN(CCCCC(C)C)CC1 [CBK039839]	95.3
Cc1ccc(C(=O)NC(=S)Nc2cccc(NC(=O)c3ccccc3C)c2)cc1 [CBK264049]	95.1
CC(C)(CO)CNc1cncc(-c2cccc(Cl)c2)n1 [CBK037862]	102
COc1ccc(/N=C2\S[C@H]3[C@H]([C@@H](O)[C@H](O)C[C@@H]3C(N)=O)N2Cc2cccs2)cc1 [CBK288943]	88.7
COc1cc(F)ccc1-c1ccc(N)c2ccccc12 [CBK084319]	103
CCOc1ccc(C(C)(CC(N)=O)C(=O)O)cc1 (stereo not shown) [CBK286778]	97.9
O=C(c1c[nH]nc1-c1cc2ccccc2o1)N1CCC(O)(C(F)(F)F)C1 (stereo not shown) [CBK305549]	90.7
CC1CN(C)C(c2ccccc2)C(C)C12NC(=O)N=C2O (stereo not shown) [CBK288428]	88.1
COc1ccc(Nc2nc(-c3ccc(F)cc3)cs2)c(OC)c1 [CBK131705]	87.5
O=C(O)c1cccc(NC(=O)c2cc(-n3cnnc3)ccc2Cl)c1 [CBK268026]	83
CN1CCC2(CC1)CN(C(=O)C1CC1)Cc1ccccc1O2 [CBK284967]	102
Cc1cc2nc(/C(C#N)=C/c3ccncc3)[nH]c2cc1C [CBK268745]	87.7
Cc1ccc(S(=O)(=O)NC(CC(=O)O)c2ccccc2)cc1 (stereo not shown) [CBK261307]	105
Cc1cc(NC(=O)CN(C)C(=O)Cc2cccc(C(F)(F)F)c2)no1 [CBK305564]	80.5
CN1C(=O)c2ccccc2C(=O)[C@@]2(C)CN(Cc3ccccc3)C[C@@H]12 [CBK284692]	95.1
N=C(N)SCCCCSC(=N)N [CBK278304B]	102
N#Cc1c(NC(=O)CSc2nc(=O)cc(N)n2CCc2ccccc2)sc2c1CCCC2 [CBK293993]	82.4
O=C(Cc1cccnc1)N1CCC(c2cccc(Cc3ccc(C(F)(F)F)cc3)n2)CC1 [CBK286223]	92.8
O=C(O)CC1Cn2ncc(-c3ccccc3)c2NC1=O (stereo not shown) [CBK288187]	89.5
CC(C)(C)OC(=O)N1CCCC(C(=O)NC(CO)Cc2ccccn2)C1 (stereo not shown) [CBK305458]	88.4
CN1CCN(C(=O)c2ccc(-c3ccccc3)nc2N(C)C)CC1 [CBK106115]	84.4

Compound	viability at 28.5 h, 10 µM [%]
COc1ccc(Cl)cc1N1CCN(Cc2ccc3ccccc3c2)CC1 [CBK126414]	116
O=c1[nH]c(SCc2n[nH]c(=S)n2-c2ccccc2)nc2sc3c(c12)CCCC3 [CBK300538]	118
OC[C@H]1O[C@@H](n2cnc3c(Cl)ncnc32)C[C@H]1O [CBK201167]	99.6
COCCNc1nc(-c2ccc3[nH]ccc3c2)ccc1C(=O)N1CCN(C)CC1 [CBK105956]	92.2
O=C1c2ccc(Oc3cccc(Oc4ccc5c(c4)C(=O)N(c4ccccn4)C5=O)c3)cc2C(=O)N1c1ccccn1 [CBK261397]	89.8
O=C(Cc1cccs1)N1CCC(c2cc3ncccc3[nH]2)CC1 [CBK283393]	86.5
O=C(O)c1cc(C(=O)O)cc(N2C(=O)C3C4C=CC(C4)C3C2=O)c1 (stereo not shown) [CBK261193]	97.5
O=C(C1CCN(S(=O)(=O)c2ccc(F)cc2)C1)N1CCN(C2CCCC2)CC1 (stereo not shown) [CBK285703]	96.6
O=C1NC(=O)c2c(NC(=O)C3CCCCC3)cccc21 [CBK019837]	88.3
CC(=O)N1CCCN(C(=O)c2ncoc2-c2ccc(F)cc2)CC1 [CBK282398]	85.2
Nc1ccc2ccc(-c3ccsc3)nc2n1 [CBK067624]	89.4
O=C(O)c1cn(C2CC2)c2cc(N3CCN(C(=O)Cc4ccccc4Cl)CC3)c(F)cc2c1=O [CBK297136]	90.4
NS(=O)(=O)c1ccc(NC(=O)C2CCCN(S(=O)(=O)c3ccc(Cl)cc3)C2)cc1 (stereo not shown) [CBK266813]	91.7
CC(NC(=O)c1cccc2ccccc12)c1ccc2ccccc2c1 (stereo not shown) [CBK267646]	90.1
CC(=O)N[C@H](Cc1c[nH]c2ccccc12)C(=O)N1CCN(c2ccc(C)cc2)CC1 [CBK091333]	91.1
Cc1ccc(OCC(O)CN2CCC(C(N)=O)CC2)cc1C (stereo not shown) [CBK057100]	105
CCN(CC)C(=O)c1ccc(NS(=O)(=O)Cc2ccccc2[N+](=O)[O-])cc1 [CBK034396]	97.1
COc1cccc(CC(=O)Nc2ncccc2C)c1 [CBK304982]	98.9
COc1cnc(C(=O)NCc2ccccc2Cl)cc1O [CBK287993]	84.6
c1ccc2c(c1)nc1n2CN(Cc2ccc3c(c2)OCO3)CN1 [CBK268087]	99.1
COc1ccc(C(=O)N2CCN(c3cnn(C)c(=O)c3Cl)CC2)cc1 [CBK305720]	84.8
Cc1ccccc1NC(=O)Cn1c(=O)cnc2ccccc21 [CBK287852]	100

Compound	viability at 28.5 h, 10 µM [%]
CC(=O)C1=C(C)N2C(=Nc3ccccc3C2(C)C)S1 [CBK010180C]	85.5
CCOC(=O)CNS(=O)(=O)c1cccs1 [CBK044958]	93.3
Nc1ncc(-c2ccc(Cl)cc2)nc1-c1ccc(N2CCOCC2)cc1 [CBK063953]	111
Clc1ccc(COc2nccnc2OCc2cccnc2N2CCOCC2)cc1Cl [CBK161610]	88.8
CCN1CCN(C(=O)Cc2ccc(N(C)C)cc2)CC1 [CBK200253]	82.2
O=C(Nc1ccnn1Cc1cccs1)N1Cc2cnn(CCO)c2C1 [CBK307150]	89.7
Cc1nc(S(=O)(=O)N2CCC(C(=O)N3CCCCCC3)CC2)cn1C [CBK305765]	99.3
OC(c1cccs1)C1CCN(Cc2ccc(-n3cncn3)cc2)CC1 (stereo not shown) [CBK306523]	97.8
CS(=O)(=O)N1CC2(CCN(CCc3c[nH]c4ccccc34)CC2)c2ccccc21 [CBK084017T]	97.9
O=C(NCC1(c2ccccc2F)CCOCC1)[C@@H]1C[C@@H]2C=C[C@H]1C2 [CBK281552]	91.6
O=C(NCC(CO)Cc1ccccn1)c1ccc2cc[nH]c2c1 (stereo not shown) [CBK305222]	81.6
COc1ccc(Cl)cc1CN(C)C(=O)c1ccc(C)[nH]c1=O [CBK305794]	92.9
COCCN(CCOC)Cc1c(C)nc2c(C)c(C)ccc2c1O [CBK265031]	102
COCCSc1ccccc1C(=O)Nc1ccc(S(N)(=O)=O)cc1 [CBK267530]	83.2
c1ccc(N2CCN(C3CCN(Cc4ccccn4)CC3)CC2)cc1 [CBK264684G]	110
O=c1[nH]c2ncc(-c3ccco3)nc2n1CCc1cccnc1 [CBK064494]	94.7
CC1(C)C(C(=O)O)C1C(=O)NCCc1ccc(O)cc1 (stereo not shown) [CBK286832]	104
Cn1c(=O)ccn([C@@H]2O[C@H](CO)[C@H](O)C2O)c1=O (stereo partly shown) [CBK201281]	104
NC[C@H]1CC[C@H](C(=O)NCCN2CCc3ccccc32)CC1 [CBK282723]	82.7
O=C(Cn1nc2n(c1=O)CCCC2)NCc1ccccc1Cl [CBK304647]	104
O=C(C1CCCN(S(=O)(=O)c2ccc(F)cc2)C1)N(Cc1ccccc1)Cc1ccccc1 (stereo not shown) [CBK267652]	108
COc1ccc(-n2c(SCC(=O)O)nnc2-c2cccs2)cc1 [CBK265636]	118
